Results from patent publication US10364263B2, “Cyclic phosphates and cyclic phosphoramidates for the treatment of neurologic disorders” (Retrophin, Inc., priority 2015, dated 2019).
Where two headings read alike, the source gives them in different places.

Key:
[1] = test system: PANK2 silenced human neuroblastoma IMR32 cells (PANK2−/−); assay: Coenzyme A assay in PANK2 silenced cells (LC-MS quantification of free CoA); type: cell-based; conditions: compound added twice (24 h + 24 h), relative to 0.1% DMSO controls
How it was run: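 PANK2 shRNA-silenced IMR32 neuroblastoma cells were treated with compound (0.1% DMSO) for 24 h, then re-dosed with fresh compound for a further 24 h at 37 °C. TFA extracts of 1×10^6 cells were assayed for free CoA by LC-MS/MS (MRM 768.1→261.6/136.1). Results are given as fold change versus DMSO controls.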

[2] = Stability in human plasma; type: in vitro ADME; conditions: 37° C.
How it was run: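 Test compound at 3 μM (0.1% DMSO) was incubated in mouse or human plasma at 37 °C and sampled in duplicate at 0, 10, 20, 30, 40 and 60 min. Reactions were stopped with acetonitrile/formic acid containing internal standard. Remaining parent was measured by UPLC-MS/MS without a calibration curve.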

[3] = Stability in mouse hepatocytes; type: in vitro ADME
[4] = Stability in human hepatocytes; type: in vitro ADME; conditions: for half-life: 5 μM, 1 million cells/ml, 37° C., human hepatocytes; for half-life at 5 µM: t1/2, Human Hepatocytes

COC(=O)CCNC(=O)[C@@H]1OP(=O)(N[C@@H](C)C(=O)OC)OCC1(C)C (stereo partly drawn) [compound 5, methyl 3-((4R)-2-(((S)-1-methoxy-1-oxopropan-2-yl)amino)-5,5-dimethyl-2-oxido-1,3,2-dioxaphosphinane-4-carboxamido)propanoate]
PANK2−/− CoA (Fold Increase): fold increase in Coenzyme A (CoA) levels relative to controls [1]: 1.15 Fold Increase
half-life at 3 µM ([2]; Diastereoisomer A (upfield shift in 31P NMR), read-out: t1/2, Human Plasma, Diastereoisomer A (converted)): > 60 min
t1/2, Human Plasma, Diastereoisomer B ([2]; Diastereoisomer B, 3 μM): >60 min
half-life at 5 µM ([3]; Diastereoisomer A (upfield shift in 31P NMR), 5 μM, 1 million cells/ml, 37° C., mouse hepatocytes, read-out: t1/2, Mouse Hepatocytes, Diastereoisomer A (converted)): 22.8 min
half-life at 5 µM ([3]; Diastereoisomer B, 5 μM, 1 million cells/ml, 37° C., mouse hepatocytes, read-out: t1/2, Mouse Hepatocytes, Diastereoisomer B (converted)): 18 min
half-life ([4]; Diastereoisomer A (upfield shift in 31P NMR), read-out: t1/2, Human Hepatocytes, Diastereoisomer A (converted)): 159 min
half-life ([4]; Diastereoisomer B, read-out: t1/2, Human Hepatocytes, Diastereoisomer B (converted)): 60 min

COC(=O)CCNC(=O)[C@@H]1OP(=O)(N[C@@H](C)C(=O)OCc2cc(C)cc(C)c2)OCC1(C)C (stereo partly drawn) [compound 3, (2S)-3,5-dimethylbenzyl 2-(((4R)-4-((3-methoxy-3-oxopropyl)carbamoyl)-5,5-dimethyl-2-oxido-1,3,2-dioxaphosphinan-2-yl)amino)propanoate]
PANK2−/− CoA (Fold Increase): fold increase in Coenzyme A (CoA) levels relative to controls [1]: 1.65 Fold Increase
half-life at 3 µM ([2]; human, plasma, Diastereoisomer A (upfield shift in 31P NMR), read-out: t1/2, Human Plasma, Diastereoisomer A (converted)): > 60 min
half-life at 3 µM ([2]; human, plasma, Diastereoisomer B, read-out: t1/2, Human Plasma, Diastereoisomer B (converted)): > 60 min
half-life at 5 µM ([3]; t1/2, Mouse Hepatocytes, Diastereoisomer A): < 15 min
half-life at 5 µM ([3]; t1/2, Mouse Hepatocytes, Diastereoisomer B): < 15 min
half-life at 5 µM ([4]; Diastereoisomer A): < 15 min
half-life at 5 µM ([4]; Diastereoisomer B): < 15 min
